Test results as given in US6610483B1, “Methods for identifying cellular responses attributable to signaling molecule inhibition and inhibitors thereof” (priority 1999, dated 2003).
pIC50: −log10 of the molar value.

Experiments:
PDGFR = settings: cited from earlier work
[1] = system: wild-type yeast cells with CDC28; experiment: DNA chip array of gene transcripts in wild-type yeast cells exposed to the mutant inhibitor; assay type: cell-based; settings: 500 nM, change of 2 fold or more
Experimental: Yeast cells expressing a functionally silent, mutant form of the wild-type protein kinase CDC28, termed CDC28 F88G, were prepared by the methods of standard yeast genetics as described in “Guide to Yeast Genetics and Molecular Biology” (Methods in Enzymology, Vol.194) by Christine Guthrie, Gerald R. Fink (Editor) Vol 194 (February 1991) Academic Press. A selective inhibitor of the mutant kinase, with little effect on the wild-type kinase, was prepared and identified using the methods described in Application Serial No. 60/115,340. Using DNA chip array technology, the levels of 6100 gene transcripts were quantitated in mRNA isolated from yeast cells expressing either wild type or F88G (mutant) CDC28 protein kinase either untreated or treated for treated for 30 minutes or 120 minutes with 500 nanomolar (nM) 4-amino-1-(tert-butyl)-3-(1′-naphthylmethyl)pyrazolo[3,4-d]pyrimidine dissolved in DMSO (500) or simply DMSO (DMSO). A change is defined as 2 fold increase or decrease in a gene transcript that is present or absent only in a particular sample. Methods for measuring transcripts were those described in Wodicka L, Dong H, Mittmann M, Ho M H, Lockhart D J, Genome-wide expression monitoring in Saccharomyces cerevisiae, Nat. Biotechnol. (1997) 15:1359-67. […] Effects of the inhibitor were evaluated at 30 and 120 minutes. […]

mutant CDC28 F88G cells = experiment: DNA chip array of gene transcripts in mutant CDC28 F88G yeast cells exposed to the mutant inhibitor; assay type: cell-based; settings: 500 nM
Experimental: Yeast cells expressing a functionally silent, mutant form of the wild-type protein kinase CDC28, termed CDC28 F88G, were prepared by the methods of standard yeast genetics as described in “Guide to Yeast Genetics and Molecular Biology” (Methods in Enzymology, Vol.194) by Christine Guthrie, Gerald R. Fink (Editor) Vol 194 (February 1991) Academic Press. A selective inhibitor of the mutant kinase, with little effect on the wild-type kinase, was prepared and identified using the methods described in Application Serial No. 60/115,340. Using DNA chip array technology, the levels of 6100 gene transcripts were quantitated in mRNA isolated from yeast cells expressing either wild type or F88G (mutant) CDC28 protein kinase either untreated or treated for treated for 30 minutes or 120 minutes with 500 nanomolar (nM) 4-amino-1-(tert-butyl)-3-(1′-naphthylmethyl)pyrazolo[3,4-d]pyrimidine dissolved in DMSO (500) or simply DMSO (DMSO). A change is defined as 2 fold increase or decrease in a gene transcript that is present or absent only in a particular sample. Methods for measuring transcripts were those described in Wodicka L, Dong H, Mittmann M, Ho M H, Lockhart D J, Genome-wide expression monitoring in Saccharomyces cerevisiae, Nat. Biotechnol. (1997) 15:1359-67. The results and comparisons among the gene transcripts are shown in FIGS. 1-4, with the identities of the particular gene transcripts listed in FIG. 5. Non-specific drug effects are the result of the exposure of the inhibitor to wild-type cells. The mutation effects are indicated by the alterations between the expression pattern between the mutant cells and the wild-type cells, both in the absence of inhibitor. The results of specific inhibition are shown by the differences between the mutant cells before and after exposure to the inhibitor, including increases and decreases. Effects of the inhibitor were evaluated at 30 and 120 minutes. These two time points were chosen based on the known time interval for yeast cell cycle progression which is about 90 minutes. Thus one time point shorter than the full cell cycle progression time (30 minutes) and one time point longer than […] (120 minutes) were chosen. The comparisons of results are shown in FIGS. 1-4, and the details of the particular transcripts altered in FIG. 5.

Row | SMILES | pIC50 (PDGFR) | genes altered (non-specific drug effects) ([1]; 30 minute exposure) [genes] | genes altered (non-specific drug effects) ([1]; 120 minute exposure) [genes] | genes altered (mutant CDC28 F88G cells; 30 minute exposure) [genes] | genes decreased more than two-fold (mutant CDC28 F88G cells; 30 minute exposure) [genes] | genes increased more than two-fold (mutant CDC28 F88G cells; 30 minute exposure) [genes] | genes altered (mutant CDC28 F88G cells; 120 minute exposure) [genes] | genes decreased (mutant CDC28 F88G cells; 120 minute exposure) [genes] | genes increased (mutant CDC28 F88G cells; 120 minute exposure) [genes]
2 | CC(C)(C)n1nc(Cc2cccc3ccccc23)c2c(N)ncnc21 [4-amino-1-(tert-butyl)-3-(1′-naphthylmethyl)pyrazolo[3,4-d]pyrimidine] | – | 7 | 3 | 85 | 74 | 11 | 186 | 100 | 86
